The values that follow come from US20230250478A1, “DIAGNOSIS AND TREATMENT OF CHRONIC DIABETIC COMPLICATIONS USING LONG NONCODING RNAS AS TARGETS” (THE UNIVERSITY OF WESTERN ONTARIO, priority 2020, published 2023).

Holding throughout (format): cell-based, human
One data set has as its system HOTAIR. Briefly: siRNA-mediated knockdown of HOTAIR in HRECs, RT-qPCR. Conditions: for reduction of HOTAIR RNA levels: HG-cultured HRECs, 48 hours, compared to SCR HG controls; for transcript levels of VEGF-A, ET-1 and ANGPTL4: custom double-stranded siRNAs, HRECs, HG. The method, then:
Human retinal microvascular endothelial cells (HRECs; Cell Systems, Kirkland, Wash., USA; catalog number ACBRI 181), mouse retinal microvascular endothelial cells (MRECs; Applied Biological Materials Inc., Richmond, BC, CAN), and primary lung endothelial cells (MLECs) from C57BL/6J mice were cultured in endothelial basal media-2 (EBM-2, Lonza, Walkersville, Md., USA) containing endothelial growth media-2 (EGM-2) SingleQuots (Lonza). All cells were grown in 75 cm^2 culture flasks and maintained in a humidified incubator containing 5% CO2 at 37° C. As described previously (22,55,56), in order to reduce variability for experimentation, cells were used between passages three and six and the cellular densities were determined accordingly based on the type of culture plates used for each experiment. Generally, once 80% confluence was obtained post-seeding, ECs were cultured in serum and growth factor-free medium overnight before exposure to different D-glucose levels (final glucose concentrations of 5 mmol/L, mimicking normoglycemia [NG], and 25 mmol/L, mimicking hyperglycemia [HG]) for various durations; the selected glucose levels are based on a large volume of previous experiments (22,27,33,55-57). All in vitro or ex vivo experiments were independently repeated at least three times and performed with six replicates, unless specified.
HRECs were transfected using scrambled siRNAs (ID number: AM4635 [SCR], Thermo Fisher Scientific) or pre-designed siRNAs targeting human HOTAIR (ID: n272221 [si1-HOTAIR], Thermo Fisher Scientific; n272222 [si2-HOTAIR], Thermo Fisher Scientific; R-187951-00-0005 [SMARTpool siHOTAIR], Horizon Discovery; Table 6, top panel), EZH2 (ID: M-004218-03-0005 [SMARTpool si-EZH2], Horizon Discovery), CTCF (ID: M-020165-02-0005 [SMARTpool siCTCF], Horizon Discovery), DNMT1 (ID: s4216 [siDNMT1], Thermo Fisher Scientific) or mouse Hotair (ID: R-173526-00-0005 [SMARTpool siHOTAIR], Horizon Discovery, Table 6, bottom panel) using Lipofectamine 2000 (Invitrogen, Burlington, ON, Canada) and Opti-MEM reduced serum media (Thermo Fisher Scientific). As documented previously by us (22,27,33,55-57), cells were transfected with 100 nM of each siRNA for 3-4 hours and subsequently recovered in complete EBM-2 overnight. Cells were then serum starved the following morning, between 18-24 hours, and then incubated with specific glucose concentrations (5 mmol/L or 25 mmol/L) for 48 hours. Knockdown of the target genes were then confirmed using RT-qPCR.
(§1) As extensively described by us (22,27,33,55-57), total RNA was extracted using the TRIzol reagent (Invitrogen). Once total RNA was obtained, a spectrophotometer (260 nm; Gene Quant, Pharmacia Biotech, USA) was used to quantify RNA concentrations in which 1-2 μg of total RNA was reverse transcribed to complementary DNA (cDNA) using a high-capacity cDNA reverse-transcription kit (Applied Biosystems/Thermo Fisher Scientific). cDNA was then amplified in the LightCycler 96 System (Roche Diagnostics, Laval, QC, CAN) using the SYBR-green master mix (Takara Bio, Mountain View, Calif., USA) and specific primers for the genes of interest (Sigma; Tables 1-2). RT-qPCR results were analyzed using the LightCycler 96 SW 1.1 software (Roche) and expression levels were calculated by the relative standard curve method using β-actin as an internal control for sample normalization.
Background: Quantitative PCR measures a nucleic acid by following its amplification.

The test system of data set [1] is HRECs. The experiment in a line: 5-aza-dC pre-treatment of HRECs, RT-qPCR. Here is the method: (§2) Following the concentrations documented in previous studies, DZNep (Cayman Chemical, Ann Arbor, Mich., USA; 5 μM), 5-aza-dC (Sigma, St. Louis, USA; 5 μM) or 2-DG (Sigma; 0.6 mM and 5 mM) pre-treatment was applied to HRECs for 1 hour prior to the addition of D-glucose (22,27,55,58). DZNep, 5-aza-dC or 2-DG-treated HRECs and their respective controls were collected at 48 hours for further analyses.
as §1

Data set [2] relates to HRECs. The experiment in a line: DZNep pre-treatment of HRECs, RT-qPCR. Here is the method:
as §2, §1

For data set [3], the system named is HRECs. Briefly: Trypan blue exclusion assay. Conditions: 2-DG-treated HRECs, data not shown.
In data set [4] the test system is HRECs. The experiment in a line: 2-DG pre-treatment of HRECs, RT-qPCR. Here is the method: as §2, §1
[5] abbreviates: 5-aza-dC 5 μM, HRECs, compared to HG controls.
[6] abbreviates: DZNep 5 μM plus HG, 48 hours, compared to SCR HG cells.

Regarding “siHOTAIR SB1: custom 21-nt duplex siRNA; sense CCAAAGAGUCUGAUGUUUACA, antisense UAAACAUCAGACUCUUUGGGG; HOTAIR target position 457-479 (RNA, backbone not given here) [custom 21-nt duplex siRNA; HOTAIR target position 457-479]”, in the data set on HOTAIR, the “reduction of HOTAIR RNA levels” value is ~67%; the “transcript levels of VEGF-A, ET-1 and ANGPTL4” value is listed as “greatest reductions”.

Turning to `Nc1ncn([C@H]2C[C@H](O)[C@@H](CO)O2)c(=O)n1` [5-aza-dC, 5-Aza-2′-deoxycytidine], in the data set on HRECs [1] (setting [5]), the “reduction of DNMT3A RNA levels” value is ~58% and the “reduction of DNMT3B RNA levels” value is reported as ~69%. In the data set with HRECs [1] (5-aza-dC-treated HRECs, HG), the “ANGPTL4, P300 and PARP1 expressions” value was “no significant differences”; the “HOTAIR, ET-1, CTCF, Cytochrome B, MCP-1, IL-1β, HOXD3 and HOXD10 transcripts” value was “significant elevations”; the “glucose-induced increases in VEGF-A RNA expressions” value is “significantly prevented”. In addition, in the data set with HRECs [1] (summary statement in Example 3), the “HOTAIR expressions and its downstream targets” value is “can reduce”.

Regarding `Nc1nccc2c1ncn2[C@@H]1C=C(CO)[C@@H](O)[C@H]1O` [DZNep, 3-Deazaneplanocin A], the “HOTAIR, VEGF-A, ANGPTL4, CTCF, PARP1, P300 and Cytochrome B transcripts” value in the data set on HRECs [2] (DZNep 5 μM and HG, compared to SCR HG controls) was “statistically significant reductions”. In the data set with HRECs [2] (setting [6]), the “reduction of EED transcripts” value is recorded as ~61%, the “reduction of EZH2 transcripts” value is on record as ~72% and the “reduction of SUZ12 transcripts” value was ~48%. Further, the “ET-1, MCP-1, IL-1β, HOXD3 and HOXD10 transcripts” value in the data set with HRECs [2] (DZNep 5 μM pre-treatment plus HG culture) is listed as “significantly augmented”. For the same compound, the “HOTAIR expressions and its downstream targets” value in the data set on HRECs [2] (summary statement in Example 3) is recorded as “can reduce”.

For the compound “siHOTAIR SB4: custom 21-nt duplex siRNA; sense GUGUAUAUAUAAUAAUGUAUU, antisense UACAUUAUUAUAUAUACACAA; HOTAIR target position 2160-2182 (RNA, backbone not given here) [custom 21-nt duplex siRNA; HOTAIR target position 2160-2182]”, in the data set on HOTAIR, the “reduction of HOTAIR RNA levels” value is reported as ~32%.

In the case of “siHOTAIR SB2: custom 21-nt duplex siRNA; sense CAUAAACAAUAUAUCUGUUGG, antisense AACAGAUAUAUUGUUUAUGAG; HOTAIR target position 1156-1178 (RNA, backbone not given here) [custom 21-nt duplex siRNA; HOTAIR target position 1156-1178]”, in the data set with HOTAIR, the “reduction of HOTAIR RNA levels” value is ~41%; the “transcript levels of VEGF-A, ET-1 and ANGPTL4” value was “greatest reductions”.

Turning to “siHOTAIR SB3: custom 21-nt duplex siRNA; sense CUCUAUAAUAUGCUUAUAUUA, antisense AUAUAAGCAUAUUAUAGAGUU; HOTAIR target position 1700-1722 (RNA, backbone not given here) [custom 21-nt duplex siRNA; HOTAIR target position 1700-1722]”, the “reduction of HOTAIR RNA levels” value in the data set on HOTAIR is ~57%.

Consider `O=CC[C@@H](O)[C@H](O)[C@H](O)CO` [2-DG, 2-deoxy-D-glucose], for which, in the data set on HRECs [3], the viability is on record as 45-55%. For the same compound, in the data set with HRECs [4] (5 mM 2-DG, HRECs cultured with HG, compared to HG controls), the “HOXD3 and HOXD10 expressions” value was “significantly upregulated”. For the same compound, the “PARP1 and P300 expressions” value in the data set on HRECs [4] (5 mM 2-DG, HRECs, HG) is recorded as “did not induce significant reductions”. In the data set on HRECs [4] (5 mM of 2-DG, HRECs, HG), the “expressions of DNMT3A and DNMT3B” value was “no differences were observed”; the “expressions of EZH2, SUZ12, EED and DNMT1” value is on record as “significant reductions”. In addition, the “HG-induced expressions of HOTAIR, VEGF-A, ET-1, ANGPTL4, MCP-1, IL-1β, CTCF and Cytochrome B” value in the data set with HRECs [4] (2-DG 0.6 or 5 mM, HRECs, HG 48 hours) is reported as “significantly blocked”.
